Laboratory results as given in patent publication US20200360341A1, “INDOMETHACIN MENTHYL ESTER-BASED PHARMACEUTICAL COMPOSITIONS AND THEIR USE AS ANTI-INFLAMMATORY AGENTS” (OBSHESTVO S OGRANICHENNOI OTVETSTVENNOSTJU "FORBOS”, priority 2017, published 2020).

Columns and labels:
[1] = tested on: gastric mucosa; test: Ulcerogenic action on gastric mucosa after fourfold oral administration; format: in vivo, rats; details: for Average score (ulcerogenic action) / Average number of erosions / Average number of ulcers: 4 times orally; for Average score (ulcerogenic action): scale 0 (no damage) to 4 (gross damage); for Average number of erosions / Average number of ulcers: stomach 3 h after last administration
Description: Ulcerogenic action was measured using the following 4-point scale: 0—no damage; 0.5—slight hyperemia of gastric mucosa; 1—weak localized damage of gastric mucosa (single point bleeding, severe hyperemia); 2—weak distributed damage of gastric mucosa (small ulcers, erosions, multiple bleeding); 3—severe and distributed damage of gastric mucosa (erosions, ulcers, bleeding); 4—gross damage of the whole stomach (massive bleeding, erosion, ulcers, perforation).

[2] = tested on: serotonin-induced edema; test: Serotonin-induced paw edema (acute inflammation); format: in vivo, rats (Sprague Dawley); details: oral; for Inflammation inhibition index: 2 h before serotonin, 30 min after serotonin, n = 8
Description: Anti-inflammatory activity of MEI-based pharmaceutical compositions compared to MEI substance (as a suspension in starch solution) and indomethacin after oral administration was studied in a model of acute inflammation-paw edema induced by inflammation mediator serotonin. Rats of Sprague Dawley stock were used. […] Test compounds were administered orally 2 hours before the serotonin administration. […] Inflammation severity was measured by plethyosmography as the difference between the masses of control and test paws, expressed in ml. Anti-inflammatory activity of the test compounds was assessed by the inhibition index, calculated using the following formula: II=(([…])×100%, where II-inflammation inhibition index in %; Set-severity of inflammation in the control group, ml; St-severity of inflammation in the test group, ml.

[3] = tested on: adjuvant-induced rheumatoid arthritis; test: Adjuvant-induced rheumatoid arthritis, inflammation severity by plethysmography; format: in vivo
Description: (§1) Anti-inflammatory and analgesic activity of MEI-based pharmaceutical composition after oral administration was studied in a model of chronic inflammation—adjuvant-induced rheumatoid arthritis in rats. To induce arthritis the rats were administered 100 mcl of complete Freund adjuvant (CFA), supplied by Sigma Aldrich, into the plantar surface of right hind paw. The control (intact) group 1 has received 100 mcl of saline. After CFA injection, local inflammation develops in a few hours, with subsequent pathologic changes in metacarpophalangeal joints and distal interphalangeal joints. Test compound (composition 3—MEI solution) and the reference drug (indomethacin) were administered once daily orally for 22 days, starting from 7th day after pathology induction. Test compound was administered in 6.25, 12.5 and 25 mg/kg doses. […] To assess the anti-inflammatory action of MEI in animals by pelthysmography, inflammation severity was measured as the difference between the masses of control and test paws, expressed in ml. Analgesic activity of MEI in animals was assessed by tactile reactivity threshold using the method of Chaplan et al. using the kit of 8 standard von Frey hairs (Stoelting, USA).

[4] = tested on: adjuvant-induced rheumatoid arthritis; test: Adjuvant-induced rheumatoid arthritis, tactile reactivity threshold (von Frey hairs); format: in vivo, rats
Description: as §1

[5] = Pharmacokinetics: indomethacin in blood plasma after oral administration; format: in vivo, rats (Sprague Dawley); details: 25 mg/kg
Description: Pharmacokinetic properties of two MEI-based compositions were studied: composition 1 (liposome-encapsulated MEI), produced as described in example 1, and composition 3 (MEI solution), produced as described in example 3. MEI substance (as a suspension in starch solution) and indomethacin were used as reference drugs. Rats of Sprague Dawley stock were used. All test compounds were administered orally to rats in 25 mg/kg dose. Animal blood was sampled at certain time points (0; 0.25; 0.5; 1, 2, 4, 8, 16 and 24 hours) for analysis. Indomethacin content in animal blood plasma was determined using high-performance liquid chromatography (HPLC) method.

[6] = tested on: carrageenan-induced edema; test: Carrageenan-induced edema, intraperitoneal administration; format: in vivo, rats (Sprague Dawley); details: after 4 h
Description: Anti-inflammatory activity of MEI-based pharmaceutical composition after parenteral administration was studied in a model of carrageenan-induced edema. Rats of Sprague Dawley stock were used. 50 mcl of saline (“sodium chloride 0.9% solution for infusion”, NPK ESCOM, Russia) was injected intraplantarly into one hind paw (control paw), while 50 mcl of 1% λ-carrageenan solution was injected into another paw.
Inflammation severity was measured after 4 h using a plethysmometer (IITC Life Science, USA). Inflammation severity was measured by plethyosmography as the difference between the masses of control and test paws, expressed in ml. Test compound, pharmaceutical composition […] (MEI solution) was administered parenterally (intraperitoneally) 1 hour before λ-carrageenan administration, animals receiving the same amount of the vehicle were used as control. The animals were deprived of food 24 h before the study, water access was not limited.

[7] = tested on: yeast-induced fever; test: Yeast-induced fever (antipyretic activity); format: in vivo, rats (Sprague Dawley); details: n = 6
Description: Antipyretic activity of MEI-based pharmaceutical composition was studied in a model of yeast-induced fever in rats. Rats of Sprague Dawley stock were used. Fever was induced in rats by subcutaneous administration of baker's yeast suspension in 2000 mg/kg dose (calculated for dry yeast basis) in 2 ml volume into the animal withers 18 hours before test compound administration. Animal body temperature was measured using an electronic rectal thermometer (MLT1403 Rectal Temperature Probe and PowerLab 4/35 4-channel registration system module, ADlnstruments PtyLtd, Australia). Temperature was measured before yeast administration and 18 h after yeast administration. Afterwards the animals were administered the test compound, MEI-based pharmaceutical composition (composition 3—MEI solution, produced as described in Example 3) in 25, 50 and 100 mg/kg doses. Indomethacin in 10 mg/kg dose was used as a reference drug. Animals in control group have received the vehicle. Temperature was measured 2 and 4 hours after test compound administration.

[8] = rats, oral administration; cited from earlier work
[9] = MEI-based composition 100 mg/kg
[10] = composition 3 (MEI solution) 6.25 mg/kg oral once daily from day 7, day 21
[11] = composition 3 (MEI solution) 6.25 mg/kg oral once daily from day 7, day 28
[12] = composition 3 (MEI solution) 6.25 mg/kg oral once daily, day 7 (before test compound administration)
[13] = composition 3 (MEI solution) 12.5 mg/kg oral once daily from day 7, day 21
[14] = composition 3 (MEI solution) 12.5 mg/kg oral once daily from day 7, day 28
[15] = composition 3 (MEI solution) 12.5 mg/kg oral once daily, day 7 (before test compound administration)
[16] = composition 3 (MEI solution) 25 mg/kg oral once daily from day 7, day 21
[17] = composition 3 (MEI solution) 25 mg/kg oral once daily from day 7, day 28
[18] = composition 3 (MEI solution) 25 mg/kg oral once daily, day 7 (before test compound administration)
[19] = composition 3 (MEI solution) 25 mg/kg oral
[20] = composition 3 (MEI solution) 50 mg/kg oral
[21] = composition 3 (MEI solution) 100 mg/kg oral
[22] = 1 mg/kg oral once daily from day 7, day 21
[23] = 1 mg/kg oral once daily from day 7, day 28
[24] = 1 mg/kg oral once daily, day 7 (before test compound administration)

## COc1ccc2c(c1)c(CC(=O)OC1CC(C)CCC1C(C)C)c(C)n2C(=O)c1ccc(Cl)cc1 (stereo not shown) [MEI]
[1]; MEI-based composition 25 mg/kg
  Average score (ulcerogenic action): 0
  Average number of erosions: 0
  Average number of ulcers: 0
[1]; MEI-based composition 50 mg/kg
  Average score (ulcerogenic action): 0
  Average number of erosions: 0
  Average number of ulcers: 0
[1]; [9]
  Average score (ulcerogenic action): 0.4
  Average number of erosions: 0
  Average number of ulcers: 0.8
[2]; 25 mg/kg
  anti-inflammatory effect in model of acute inflammation: doesn't have significant anti-inflammatory effects
[2]; 25 mg/kg active agent
  Inflammation inhibition index: 4.3%
[3]; composition 3 (MEI solution) 6.25 mg/kg oral once daily from day 7, day 14
  inflammation severity: 2.5 ± 0.76 mL
[3]; [10]
  inflammation severity: 1.8 ± 0.49 mL
[3]; [11]
  inflammation severity: 1.9 ± 0.51 mL
[3]; [12]
  inflammation severity: 2.8 ± 0.54 mL
[3]; composition 3 (MEI solution) 12.5 mg/kg oral once daily from day 7, day 14
  inflammation severity: 1.9 ± 0.37 mL
[3]; [13]
  inflammation severity: 2.0 ± 0.40 mL
[3]; [14]
  inflammation severity: 1.1 ± 0.21 mL
[3]; [15]
  inflammation severity: 2.6 ± 0.38 mL
[3]; composition 3 (MEI solution) 25 mg/kg oral once daily from day 7, day 14
  inflammation severity: 1.5 ± 0.22 mL
[3]; [16]
  inflammation severity: 0.9 ± 0.07 mL
[3]; [17]
  inflammation severity: 0.8 ± 0.12 mL
[3]; [18]
  inflammation severity: 2.4 ± 0.43 mL
[4]; [10]
  median-effective tactile reactivity threshold in an injected limb: 10.4 ± 3.09 g
[4]; [11]
  median-effective tactile reactivity threshold in an injected limb: 9.6 ± 2.67 g
[4]; [12]
  median-effective tactile reactivity threshold in an injected limb: 11.7 ± 2.93 g
[4]; [13]
  median-effective tactile reactivity threshold in an injected limb: 13.3 ± 2.55 g
[4]; [14]
  median-effective tactile reactivity threshold in an injected limb: 14.8 ± 2.35 g
[4]; [15]
  median-effective tactile reactivity threshold in an injected limb: 11.8 ± 3.12 g
[4]; [16]
  median-effective tactile reactivity threshold in an injected limb: 16.6 ± 2.64 g
[4]; [17]
  median-effective tactile reactivity threshold in an injected limb: 18.2 ± 2.57 g
[4]; [18]
  median-effective tactile reactivity threshold in an injected limb: 9.8 ± 2.14 g
[5]; suspension in starch solution, any time point 0-24 h
  indomethacin concentration in blood plasma: below the detection limit
[6]; composition No 4 (MEI solution) 0.1 mg/kg intraperitoneally 1 h before carrageenan
  Edema size: 1.011 ± 0.115 mL
[6]; composition No 4 (MEI solution) 0.1 mg/kg intraperitoneally
  Edema size, % from control: 91.2 % from control
[6]; composition No 4 (MEI solution) 0.5 mg/kg intraperitoneally 1 h before carrageenan
  Edema size: 0.675 ± 0.065 mL
[6]; composition No 4 (MEI solution) 0.5 mg/kg intraperitoneally
  Edema size, % from control: 60.9 % from control
[6]; composition No 4 (MEI solution) 1.0 mg/kg intraperitoneally 1 h before carrageenan
  Edema size: 0.552 ± 0.097 mL
[6]; composition No 4 (MEI solution) 1.0 mg/kg intraperitoneally
  Edema size, % from control: 45.0 % from control
[6]; composition No 4 (MEI solution) 10 mg/kg intraperitoneally 1 h before carrageenan
  Edema size: 0.201 ± 0.176 mL
[6]; composition No 4 (MEI solution) 10 mg/kg intraperitoneally
  Edema size, % from control: 18.1 % from control
[6]; composition No 4 (MEI solution) 50 mg/kg intraperitoneally 1 h before carrageenan
  Edema size: 0.288 ± 0.152 mL
[6]; composition No 4 (MEI solution) 50 mg/kg intraperitoneally
  Edema size, % from control: 26.0 % from control
[7]; [19]
  Average body temperature 2 h after test compound administration: −0.53 °C
  Average body temperature 4 h after test compound administration: −0.45 °C
[7]; [20]
  Average body temperature 2 h after test compound administration: −0.93 °C
  Average body temperature 4 h after test compound administration: −0.82 °C
[7]; [21]
  Average body temperature 2 h after test compound administration: −0.78 °C
  Average body temperature 4 h after test compound administration: −0.68 °C

## COc1ccc2c(c1)c(CC(=O)O)c(C)n2C(=O)c1ccc(Cl)cc1 [Indomethacin, 1-(4-chlorobenzoyl)-5-methoxy-2-methyl-1H-indole-3-acetic acid]
[1]; 5 mg/kg
  Average score (ulcerogenic action): 3
  Average number of erosions: 3.2
  Average number of ulcers: 8
[1]; four 5 mg/kg doses, oral
  gastric mucosa findings: multiple ulcers and erosions
[2]; 10 mg/kg
  Inflammation inhibition index: 43.5%
[3]; 1 mg/kg oral once daily from day 7, day 14
  inflammation severity: 1.8 ± 0.24 mL
[3]; [22]
  inflammation severity: 1.5 ± 0.18 mL
[3]; [23]
  inflammation severity: 1.4 ± 0.28 mL
[3]; [24]
  inflammation severity: 3.0 ± 0.59 mL
[3]; 5 mg/kg, oral once daily, arthritis model
  animal mortality: animal mortality is observed
[4]; [22]
  median-effective tactile reactivity threshold in an injected limb: 14.5 ± 3.18 g
[4]; [23]
  median-effective tactile reactivity threshold in an injected limb: 16.0 ± 3.04 g
[4]; [24]
  median-effective tactile reactivity threshold in an injected limb: 9.9 ± 2.34 g
[8]
  LD50: less than 15 mg/kg
[5]; Sprague-Dawley, rat blood plasma, read-out: time of reaching the maximal concentration (Tmax) of indomethacin
  Tmax: 4 h
[5]; Sprague-Dawley, rat, plasma, indomethacin measured by HPLC, read-out: maximal concentration of indomethacin in rat blood plasma (Cmax)
  Cmax: 65.5 µg/mL
[7]; 10 mg/kg
  Average body temperature 2 h after test compound administration: −0.98 °C
  Average body temperature 4 h after test compound administration: −0.85 °C
